This note sets out measurements from patent publication US8198317B2, “Methylenedioxy phenolic compounds and their use to treat disease” (The Ohio State University Research Foundation, priority 2008, dated 2012).

One experiment has as its system Patient. Briefly: Treatment of a patient with chronic stable angina (Example 20). Type of experiment: in vivo, human. The settings on record: oral, 1.0 to 100 mg/kg, two weeks. As for the experimental part: A person with a prior history of a heart attack (myocardial infarction) 10 years ago presents for evaluation. They are complaining of anginal chest pains that are relived with one sub-lingual nitroglycerin and has had these pains chronically. The patient is administered a composition comprising an effective amount of oral 3,4-Methylenedioxy 6-nitro phenyl lipoate (INV-7465) (1.0 to 100 mg/kg). Alternate therapies include, 3,4-methylenedioxy phenyl acetate (INV 73); 3,4-methylenedioxy-6-nitrophenol (INV 74); 3,4-methylenedioxy-6-nitrophenyl acetate (INV 75); or 3,4-Methylenedioxy phenyl lipoate (INV-7065). Patient notes added benefit in their chest pains with this regimen after taking the medication for two weeks.

Experiment [1] has as its system Watanabe Heritable Hyperlipidemic Rabbits (WHHL). The experiment can be described thus: Quantitative RT-PCR of genes in thoracic aorta of WHHL rabbits. The class given is in vivo, rabbit. How it is done:
Total RNA was isolated with TRIzol reagent (Invitrogen). Four microgram of total RNA was reverse transcribed by random hexamers and ThermoScript RT-PCR System (Invitrogen). Quantitative real-time PCR was performed with the Stratagene Mx3005 using SYBER Green PCR Master Mix (Applied Biosystems, Foster City, Calif.). Relative expression level compared to GAPDH was obtained. The primers used in the experiment are depicted in the table below and were purchased from Invitrogen.

The test system of a further experiment is C57Bl/6 mice. The experiment can be described thus: SREBP-2, LDLR and LDL in vivo in mice. Also on record: species or system mouse. The note with it: 20 mg/kg/day intraperitoneally, two weeks. How it is done:
To study the effect of INV-75 on SREBP activity in vivo experiment was performed as follows: C57bl/6 mice (6/group) were intraperitoneally injected with INV-75 (20 mg/kg/day, for two weeks). The binding activity of SREBP2 in nuclear proteins of liver homogenates was measured by electrophoretic migration shift assay (EMSA). Simultaneously multiple genes involved in cholesterol synthesis and regulation, apolipoprotein gene expression and expression of PCSK9 (Proprotein convertase subtilisin/kexin type 9) were also studied in the liver. PCSK9 is known to regulate LDL receptor expression by binding to the epidermal growth factor-like repeat A (EGF-A) domain of the low-density lipoprotein receptor (LDLR), inducing LDLR degradation.

In the next experiment the test system is PCSK9. Briefly: PCSK9 expression in HepG2 cells. Type of experiment: cell-based, human. An excerpt:
Next we investigated the effect of INV-75 in regulating LDL receptor expression in the same cells using a similar protocol to assess dose and temporal dependence. FIGS. 5E and 5F depict the time course of LDL receptor expression and dose dependence in response to INV-75. […] INV-75 had no effects on SREBP-1 regulation (data not shown). Simultaneously multiple genes involved in cholesterol synthesis and regulation, apolipoprotein gene expression and expression of PCSK9 (Proprotein convertase subtilisin/kexin type 9) was tested. The latter gene is known to regulate LDL receptor expression by binding to the epidermal growth factor-like repeat A (EGF-A) domain of the low-density lipoprotein receptor (LDLR), inducing LDLR degradation. Inhibition of PSCK9 function is currently being explored as a means of lowering cholesterol levels.

Experiment [2] concerns thoracic aorta of WHHL rabbits. The experiment can be described thus: Organ chamber experiments on thoracic aortic rings of WHHL rabbits. Type of experiment: in vivo, rabbit. As for the experimental part:
Rabbits were euthanized by injection of lethal doses of pentobarbital. The ascending aortas was removed and 2 mm thoracic aortic rings were suspended in individual organ chambers filled with physiological salt solution buffer (sodium chloride, 130 mEq/L; potassium chloride, 4.7 mEq/L; calcium dichloride, 1.6 mEq/L; magnesium sulfate, 1.17 mEq/L; potassium diphosphate, 1.18 mEq/L; sodium bicarbonate, 14.9 mEq/L; EDTA, 0.026 mEq/L; and glucose, 99.1 mg/dL [5.5 mmol/L]; pH, 7.4), aerated continuously with 5% carbon dioxide in oxygen at 37° C. Vessels were allowed to equilibrate for at least 1 hour at a resting tension of 30 mN before being subjected to graded doses of agonists as described previously. The vasoconstrictor agonists included phenylephrine (PE), endothelin-1 (ET-1), or angiotensin II. Responses were expressed as a percentage of the peak response to 120 mEq/L of potassium chloride. The vessels subjected to PE were washed thoroughly and allowed to equilibrate for 1 hour before beginning experiments with acetylcholine, sodium nitroprusside (SNP) or insulin. […] Results were expressed as a percentage of pre-contraction by PE (0.1 μM). The rings exposed to acetylcholine were thoroughly washed and allowed to equilibrate for 1 hour. […] Results were expressed as a percentage of pre-contraction by PE (0.1 μM). INV-75 decreased aortic contraction by angiotensin II but had no effect on phenylephrine (FIG. 15 and FIG. 16).

In a further experiment the test system is LDL receptor. The experiment can be described thus: LDL receptor mRNA by RT-PCR in HepG2 cells. The note with it: HepG2, time dependent and dose dependent. The class given is cell-based, human. As for the experimental part:
FIG. 5E is graph showing time course of low density lipoprotein receptor (LDLR) messenger RNA (mRNA) with INV-75 assessed by quantitative real time polymerase chain reaction (RT-PCR). A total of three experiments were performed. *, p<0.01 by ANOVA compared to vehicle.
FIG. 5F is a graph showing dose dependency experiments of low density lipoprotein receptor (LDLR) messenger RNA (mRNA) measurement with INV-75. HepG2 cells were stimulated with multiple concentrations of INV-75 for 1 hour and LDL mRNA expression was measured by quantitative real time polymerase chain reaction (RT-PCR). A total of three experiments were performed. *, p<0.01 by ANOVA compared to vehicle. Dose of INV-75 is log molar concentration.
Next we investigated the effect of INV-75 in regulating LDL receptor expression in the same cells using a similar protocol to assess dose and temporal dependence. FIGS. 5E and 5F depict the time course of LDL receptor expression and dose dependence in response to INV-75. […] INV-75 had no effects on SREBP-1 regulation (data not shown). Simultaneously multiple genes involved in cholesterol synthesis and regulation, apolipoprotein gene expression and expression of PCSK9 (Proprotein convertase subtilisin/kexin type 9) was tested. […]

In another experiment the test system is Patients. Briefly: Treatment of dyslipidemia in diabetic patients (Example 25). Type of experiment: in vivo, human. The note with it: oral, 12 months. An excerpt: Individuals with Type I and Type II diabetes are at risk for future cardiovascular events such as heart attacks, strokes and kidney disease. These individuals often have abnormalities in lipids such as elevations in triglycerides and VLDL cholesterol. They are on treatments such as hypolipidemic drug therapy such as statins and fibrates (Gemfibrozil or Fenofibrate) to lover cholesterol levels in conjunction with glycemia lowering strategies such as Insulin, PPAR γ agents, Metformin or sulfonylurea therapy. In addition to these treatments they will also receive an acceptable dose of a composition comprising a compound of the present invention in an acceptable carrier orally chronically for durations in excess of 12 months. In one study, (3,4-methylenedioxy phenyl acetate (INV 73); 3,4-methylenedioxy-6-nitrophenol (INV 74); 3,4-methylenedioxy-6-nitrophenyl acetate (INV 75); are administered to these individuals. The patients undergo lipid measurements at baseline and at the end of treatment for a 12 month duration. At the end of 12 months of treatment, there is lowering of VLDL cholesterol and a decrease in triglycerides.

For `O=C(CCCCC1CCSS1)Oc1cc2c(cc1[N+](=O)[O-])OCO2` (stereo not shown) [INV-7465, 3,4-Methylenedioxy 6-nitro phenyl lipoate], the chest pains result in the experiment with Patient is recorded as “added benefit”.

For `CC(=O)Oc1cc2c(cc1[N+](=O)[O-])OCO2` [INV-75, 3,4-methylenedioxy-6-nitrophenyl acetate], in experiment [1] (WHHL thoracic aorta), the “mRNA expression of ICAM-1” value is listed as “decreased”, the “mRNA expression of L-selectin” value was “decreased”, the “mRNA expression of MCP-1” value is “decreased” and the “mRNA expression of VCAM-1” value is listed as “decreased”. Also, the “mRNA expression of the angiotensin II Type I receptor” value in experiment [1] (WHHL, data not shown) is “decreased”. For the same compound, in the experiment on C57Bl/6 mice, the LDL entry was “significantly lowered”; the “LDL receptor expression in liver (real-time RT-PCR, western blot)” value is “increase”; the “SREBP2 activation in liver (EMSA)” value is “dramatically activated”; the other lipoproteins entry is on record as “not other lipoproteins”. The PCSK9 expression entry in the experiment with PCSK9 is recorded as “no effects”. Besides, in experiment [2] (in words), the “aortic contraction by angiotensin II” value is listed as “decreased”, the “effect on insulin relaxation” value is listed as “marginal (non-significant effect”, the “effect on phenylephrine response” value is listed as “no effect” and the “effect on response to endothelin-1” value was “no effects”. Further, the “effect on SNP response” value in experiment [2] (results not shown) is on record as “no effects”. The LDL receptor expression result in the experiment with LDL receptor was “increases”. In the experiment on Patients, the VLDL cholesterol result is “lowering” and the triglycerides entry was “decrease”.
